Here are results for seven compounds from ChEMBL document CHEMBL1201862, “PubChem BioAssay data set” (2004).

Each structure is given as a SMILES string.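 Five compound concentrations were applied to cells in 96-well plates for 48 hours; endpoints were derived by simple linear interpolation of the resulting dose-response curve. GI50 = concentration required for 50% inhibition of growth.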 The source made the active and inactive calls. Cut-off read from the data, not from the text of the source: active = GI50 up to about 1.1 µM and inactive = higher.

Among the test systems are 786-0; A498; BT-549; CAKI-1; CCRF-CEM; COLO 205; EKVX; HCC 2998; HCT-116; HT-29; IGROV-1; LOX IMVI; MDA-MB-231; MDA-N; NCI/ADR-RES; OVCAR-4; SK-MEL-5; SR; TK-10; U-251.
What all share (assay): NCI-60 cell line screen, 48 h

For the compound `COc1cccc2cc(C(C)=O)c(=O)oc12`, the GI50 in the experiment with 786-0, with A498, in the experiment with BT-549, in the experiment on CAKI-1, in the experiment with CCRF-CEM and with COLO 205 was > 100 µM (inactive) in each case. In addition, the GI50 in the experiment on EKVX, with HCC 2998, with HCT-116, in the experiment on HT-29, with IGROV-1 and with LOX IMVI was > 100 µM (inactive) each time. The GI50 in the experiment on MDA-MB-231, in the experiment on MDA-N, with NCI/ADR-RES, with OVCAR-4, in the experiment with SK-MEL-5 and with SR was > 100 µM (inactive) throughout. Moreover, the GI50 with TK-10 and in the experiment with U-251 was > 100 µM (inactive) throughout.
`COc1cc2c(c(O)c1OC)C(=O)[C@@H]1CCC(=O)N1C2`: the GI50 with 786-0, in the experiment on A498, in the experiment on BT-549, in the experiment on CAKI-1, in the experiment on CCRF-CEM and in the experiment with COLO 205 was > 100 µM (inactive) in each case. In addition, the GI50 in the experiment on EKVX, in the experiment on HCC 2998, with HCT-116, with HT-29, in the experiment on IGROV-1 and with LOX IMVI was > 100 µM (inactive) in each case. Also, the GI50 with MDA-MB-231, with MDA-N, in the experiment with NCI/ADR-RES, in the experiment on OVCAR-4, in the experiment on SK-MEL-5 and in the experiment on SR was > 100 µM (inactive) in each case. For the same compound, the GI50 in the experiment with TK-10 and in the experiment on U-251 was > 100 µM (inactive) each time.
With `COC1/C=C/C(C)C(OC)CC(O)/C=C/C(C)C(C(C)C(OC)C(C)CCC(=O)C(C)C(C/C=C/N(C)C=O)OC)OC(=O)/C=C/C=C(\C)CC(OC)CC2=CC(=O)O[C@@H](C(C)C(OC)C1)[C@H]2O` (stereo not given in full), the GI50 in the experiment with 786-0 was 0.0977 µM (active); in the experiment with A498, 0.056 µM (active); in the experiment with BT-549, 0.142 µM (active); with CAKI-1 it was 0.0332 µM (active); in the experiment on CCRF-CEM, 0.621 µM (active); with COLO 205, 0.0301 µM (active). The GI50 is 0.386 µM (active) in the experiment with EKVX; 0.175 µM (active) in the experiment with HCC 2998; 0.0188 µM (active) with HCT-116; 0.0845 µM (active) in the experiment with HT-29; 0.0708 µM (active) with IGROV-1; 0.0223 µM (active) in the experiment on LOX IMVI. The GI50 with MDA-MB-231 is 0.0395 µM (active); in the experiment with MDA-N it was 0.0951 µM (active); with NCI/ADR-RES it was 0.195 µM (active); in the experiment with OVCAR-4 it was 0.12 µM (active); with SK-MEL-5, 0.125 µM (active); with SR, 0.0929 µM (active). Besides, the values for the GI50 with TK-10 and in the experiment on U-251 were 0.29 µM (active) and 0.0706 µM (active), respectively.
Turning to `CCOc1ccc(-n2c(=O)n3c(Nc4ccc(Cl)cc4)nc4c(c(=O)n(C)c(=O)n4C)n3c2=O)cc1`, the GI50 with 786-0 is 36.6 µM (inactive); with A498 it was 22.9 µM (inactive); with BT-549 it was 29 µM (inactive); in the experiment on CAKI-1, 38.5 µM (inactive); with CCRF-CEM, 20.8 µM (inactive); in the experiment with COLO 205 it was 21.6 µM (inactive). Further, the GI50 is 24.9 µM (inactive) with EKVX; 19.5 µM (inactive) with HCC 2998; 19.5 µM (inactive) with HCT-116; 27.7 µM (inactive) with HT-29; 37.4 µM (inactive) in the experiment with IGROV-1; 20.4 µM (inactive) with LOX IMVI. In addition, the GI50 is 15.5 µM (inactive) in the experiment on MDA-MB-231; 32.7 µM (inactive) in the experiment on MDA-N; > 100 µM (inactive) with NCI/ADR-RES; 53 µM (inactive) in the experiment with OVCAR-4; 19 µM (inactive) with SK-MEL-5; 21 µM (inactive) with SR. For the same compound, the GI50 in the experiment on TK-10 is 18.8 µM (inactive); in the experiment with U-251, 32.7 µM (inactive).
Turning to `CCOc1ccccc1/N=N/C1C(=O)N(C(=O)CC(=O)Nc2ccccc2OC)N=C1C` (stereo not given), the GI50 in the experiment on 786-0 was 56.2 µM (inactive); in the experiment on A498 it was 63.4 µM (inactive); in the experiment with BT-549, > 100 µM (inactive); in the experiment on CAKI-1, > 100 µM (inactive); in the experiment on CCRF-CEM it was > 100 µM (inactive); in the experiment with COLO 205, > 100 µM (inactive). Moreover, the GI50 in the experiment on EKVX is 0.427 µM (active); in the experiment on HCC 2998, > 100 µM (inactive); in the experiment on HCT-116 it was 40.9 µM (inactive); in the experiment on HT-29 it was > 100 µM (inactive); in the experiment on IGROV-1, 50.8 µM (inactive); in the experiment on LOX IMVI, > 100 µM (inactive). The GI50 with MDA-MB-231 is 30.3 µM (inactive); in the experiment on MDA-N it was > 100 µM (inactive); in the experiment with NCI/ADR-RES it was 54.7 µM (inactive); in the experiment on OVCAR-4, > 100 µM (inactive); in the experiment on SK-MEL-5 it was > 100 µM (inactive); in the experiment with SR, > 10 µM (inactive). Also, the values for the GI50 with TK-10 and in the experiment on U-251 were > 100 µM (inactive) and 27.3 µM (inactive), respectively.
`OCCN1CN(c2nc(N3CN(CCO)C3)nc(N3CN(CCO)C3)n2)C1`: the GI50 in the experiment with 786-0 is 23.8 µM (inactive); with A498, 31.5 µM (inactive); with BT-549, 32.6 µM (inactive); with CAKI-1, 22.5 µM (inactive); in the experiment with CCRF-CEM it was 20.5 µM (inactive); with COLO 205 it was 28 µM (inactive). Further, the GI50 in the experiment on EKVX is 26.8 µM (inactive); in the experiment on HCC 2998, 19.5 µM (inactive); in the experiment with HCT-116, 18.6 µM (inactive); in the experiment on HT-29, 25.5 µM (inactive); in the experiment with IGROV-1 it was 30.1 µM (inactive); in the experiment with LOX IMVI, 14.8 µM (inactive). Further, the GI50 is 19.8 µM (inactive) in the experiment on MDA-MB-231; 18.1 µM (inactive) in the experiment with MDA-N; 31.1 µM (inactive) in the experiment with NCI/ADR-RES; 30.6 µM (inactive) in the experiment on OVCAR-4; 19.2 µM (inactive) in the experiment on SK-MEL-5; 11.2 µM (inactive) with SR. For the same compound, the GI50 in the experiment with TK-10 was 30.6 µM (inactive); in the experiment on U-251 it was 22.6 µM (inactive).
In the case of `C[C@H]1CCC2C(OC(=O)[C@@H]2CN(C)C)[C@]2(C)C(=O)C=CC12O` (stereo not given in full), the GI50 in the experiment on 786-0 is 5.26 µM (inactive); in the experiment on A498, 14.2 µM (inactive); in the experiment with BT-549, 5.37 µM (inactive); with CAKI-1, 7.06 µM (inactive); in the experiment with CCRF-CEM it was 1.87 µM (inactive); with COLO 205, 4.74 µM (inactive). Further, the GI50 in the experiment on EKVX was 4.02 µM (inactive); in the experiment with HCC 2998, 5.2 µM (inactive); in the experiment with HCT-116, 2.86 µM (inactive); in the experiment on HT-29, 4.09 µM (inactive); with IGROV-1, 15.8 µM (inactive); with LOX IMVI, 4.59 µM (inactive). Also, the GI50 in the experiment with MDA-MB-231 is 9.55 µM (inactive); in the experiment on MDA-N it was 3.48 µM (inactive); with NCI/ADR-RES, 2 µM (inactive); with OVCAR-4, 5.62 µM (inactive); with SK-MEL-5, 7.16 µM (inactive); in the experiment on SR, 2.47 µM (inactive). Besides, the GI50 in the experiment on TK-10 is 6.68 µM (inactive); with U-251, 17.5 µM (inactive).
